Source: the supplement of paper PMC11061612

Assays:
[1] = system: D-283MED (Other Solid Carcinomas); test: Bliss excess, mean over the matrix (fraction); higher = more synergy
Method in brief: (§1)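 Cell lines in DMEM/F12 or RPMI with 10% FBS were plated in 1536-well plates, held 24 hours at 37°C, 5% CO2, then given two-drug dose matrices for 72 hours (DMSO typically 0.2%). Viability was read by CellTiter-Glo 2.0 luminescence and scaled as inhibition from 0 (vehicle wells) to 1 (blank wells). Combination Emax is the second-highest inhibition in the matrix; Bliss excess is observed combination effect minus expected EA + EB − EA·EB, EA and EB being single-agent effects.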

[2] = system: EFM-192A (Breast Carcinoma); test: as above
Method in brief: as §1

[3] = system: EKVX (Non-Small Cell Lung Carcinoma); test: as above
Method in brief: as §1

EW-22 (Ewing's Sarcoma) = test: as above
Method in brief: as §1

[4] = system: FU-OV-1 (Ovarian Carcinoma); test: as above
Method in brief: as §1

H4 (Low Grade Glioma) = test: as above
Method in brief: as §1

[5] = system: HCT-116 (Colorectal Carcinoma); test: as above
Method in brief: as §1

MCF7 (Breast Carcinoma) = test: as above
Method in brief: as §1

[6] = system: MES-SA (Other Solid Carcinomas); test: as above
Method in brief: as §1

[7] = system: NOMO-1 (Acute Myeloid Leukemia); test: as above
Method in brief: as §1

[8] = system: SK-UT-1 (Other Solid Carcinomas); test: as above
Method in brief: as §1

[9] = system: SW948 (Colorectal Carcinoma); test: as above
Method in brief: as §1

[10] = system: YT (Other Blood Carcinomas); test: as above
Method in brief: as §1

[11] = system: FU-OV-1 (Ovarian Carcinoma); test: combination Emax (second highest fraction inhibited in the dose matrix, 72 h); higher = more inhibition; extreme values may be limits of the assay
Method in brief: as §1
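Throughout, for Bliss excess, mean over the matrix: after 72 h of two-drug dosing.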

SMILES	Bliss excess [1]	Bliss excess [2]	Bliss excess [3]	Bliss excess (EW-22 (Ewing's Sarcoma))	Bliss excess [4]	Bliss excess (H4 (Low Grade Glioma))	Bliss excess [5]	Bliss excess (MCF7 (Breast Carcinoma))	Bliss excess [6]	Bliss excess [7]	Bliss excess [8]	Bliss excess [9]	Bliss excess [10]	combination Emax [11]
CN(CCO)CC[C@H](CSc1ccccc1)Nc1ccc(S(=O)(=O)NC(=O)c2ccc(N3CCC([C@@H](O)c4ccccc4-c4ccc(Cl)cc4)CC3)cc2)cc1S(=O)(=O)C(F)(F)F [AZD4320] + C[C@@H](Nc1cc(F)cc(F)c1)c1cc(C(=O)N(C)C)cc2c(=O)cc(N3CCOCC3)oc12 [AZD8186] (first compound max 1 µM, 7x7, partner max 3 µM)	0.0429	0.0057	-0.0127	-0.0261	-0.0284	0.0521	0.0266	0.0057	0.0139	0.0515	0.002	-0.101	0.0327	0.558
CN(CCO)CC[C@H](CSc1ccccc1)Nc1ccc(S(=O)(=O)NC(=O)c2ccc(N3CCC([C@@H](O)c4ccccc4-c4ccc(Cl)cc4)CC3)cc2)cc1S(=O)(=O)C(F)(F)F [AZD4320] + Cn1cnc2c(F)c(Nc3ccc(Br)cc3Cl)c(C(=O)NOCCO)cc21 [Selumetinib] (first compound max 1 µM, 7x7, partner max 3 µM)	0.0172	–	0.0109	0.0011	0.0354	-0.0002	-0.0232	0.0377	0.0404	0.143	–	-0.0332	-0.0834	0.619
COc1cccc(OCCCN)c1-c1cc(Nc2cnc(C#N)cn2)n[nH]1 [Prexasertib] + CCc1c2c(nc3ccc(O)cc13)-c1cc3c(c(=O)n1C2)COC(=O)[C@]3(O)CC [SN-38] (first compound max 1 µM, 7x7, partner max 0.3 µM)	-0.0222	0.0304	-0.0347	-0.0916	0.0846	-0.0544	-0.0124	-0.0081	-0.0714	-0.0319	-0.0125	0.151	-0.0527	0.806
COc1cccc(OCCCN)c1-c1cc(Nc2cnc(C#N)cn2)n[nH]1 [Prexasertib] + C[C@@H]1COCCN1C2=NC(=NC(=C2)C3(CC3)[S@](=N)(=O)C)C4=C5C=CNC5=NC=C4 [AZD6738] (first compound max 1 µM, 7x7, partner max 10 µM)	0.0042	0.0131	-0.0018	-0.0326	–	0.0311	0.103	0.017	-0.0765	-0.0147	-0.0259	0.0334	-0.0631	–
COc1cccc(OCCCN)c1-c1cc(Nc2cnc(C#N)cn2)n[nH]1 [Prexasertib] + Cc1cc2ncnn2cc1Nc1ncc2c(n1)n(C1CCOCC1)c(=O)n2C [AZD7648] (first compound max 1 µM, 7x7, partner max 10 µM)	-0.0193	-0.0199	-0.0474	-0.0519	–	-0.0369	-0.0164	0.0688	-0.02	-0.0388	-0.0227	-0.0155	-0.0508	–
COc1cccc(OCCCN)c1-c1cc(Nc2cnc(C#N)cn2)n[nH]1 [Prexasertib] + O=C(c1cc(Cc2n[nH]c(=O)c3ccccc23)ccc1F)N1CCN(C(=O)C2CC2)CC1 [Olaparib] (first compound max 1 µM, 7x7, partner max 10 µM)	-0.0232	-0.0365	-0.0217	-0.0447	–	-0.0306	0.0121	-0.0236	-0.0561	-0.027	-0.0422	-0.0118	-0.0314	–
COc1cc2c(cc1OCCCCCOc1cc3c(cc1OC)C(=O)N1C=C(C)C[C@H]1C=N3)N=C[C@@H]1CC(C)=CN1C2=O [SG3199] + O=C(c1cc(Cc2n[nH]c(=O)c3ccccc23)ccc1F)N1CCN(C(=O)C2CC2)CC1 [Olaparib] (first compound max 0.001 µM, 7x7, partner max 10 µM)	-0.0347	-0.053	-0.0424	-0.0544	–	-0.0406	-0.0523	-0.0444	0.0626	-0.0328	-0.0181	-0.0092	0.019	–
CCc1c2c(nc3ccc(O)cc13)-c1cc3c(c(=O)n1C2)COC(=O)[C@]3(O)CC [SN-38] + CN(C)CCCOc1ccc(-c2ccc3ncc4c(c3c2)n(C2CCOCC2)c(=O)n4C)cn1 [AZD0156] (first compound max 0.3 µM, 7x7, partner max 1 µM)	-0.024	-0.0268	-0.0142	0.0276	–	-0.0255	0.0669	-0.0388	-0.0316	0.034	0.0533	0.237	-0.0872	–
CC(=O)Nc1cccc(-n2c(=O)n(C3CC3)c(=O)c3c(Nc4ccc(I)cc4F)n(C)c(=O)c(C)c32)c1 [Trametinib] + Cc1nc(-c2cn3c(n2)-c2ccc(-c4cnn(C(C)(C)C(N)=O)c4)cc2OCC3)n(C(C)C)n1 [Taselisib] (first compound max 1 µM, 7x7, partner max 10 µM)	0.119	0.0042	0.136	-0.0042	–	0.132	0.124	0.0979	0.062	0.0306	0.0411	0.0126	-0.0043	–
CC1(C)CCC(CN2CCN(c3ccc(C(=O)NS(=O)(=O)c4ccc(NCC5CCOCC5)c([N+](=O)[O-])c4)c(Oc4cnc5[nH]ccc5c4)c3)CC2)=C(c2ccc(Cl)cc2)C1 [Venetoclax] + C1CN(CCC1(C(=O)N[C@@H](CCO)C2=CC=C(C=C2)Cl)N)C3=NC=NC4=C3C=CN4 [Capivasertib] (first compound max 1 µM, 7x7, partner max 3 µM)	-0.0218	-0.046	-0.0306	0.0137	-0.0783	-0.0366	-0.0801	0.0076	-0.0597	-0.0342	0.0153	-0.0718	0.0073	0.151
CC1(C)CCC(CN2CCN(c3ccc(C(=O)NS(=O)(=O)c4ccc(NCC5CCOCC5)c([N+](=O)[O-])c4)c(Oc4cnc5[nH]ccc5c4)c3)CC2)=C(c2ccc(Cl)cc2)C1 [Venetoclax] + C=CCn1c(=O)c2cnc(Nc3ccc(N4CCN(C)CC4)cc3)nc2n1-c1cccc(C(C)(C)O)n1 [AZD1775] (first compound max 1 µM, partner max 1 µM)	0.0257	-0.0253	-0.075	0.139	-0.0599	0.0732	-0.0765	-0.0227	-0.0606	0.0689	0.0562	-0.0113	-0.0039	0.612
CC1(C)CCC(CN2CCN(c3ccc(C(=O)NS(=O)(=O)c4ccc(NCC5CCOCC5)c([N+](=O)[O-])c4)c(Oc4cnc5[nH]ccc5c4)c3)CC2)=C(c2ccc(Cl)cc2)C1 [Venetoclax] + CCN(CCO)CCCOc1ccc2c(Nc3cc(CC(=O)Nc4cccc(F)c4)[nH]n3)ncnc2c1 [AZD2811] (first compound max 1 µM, 7x7, partner max 1 µM)	0.0579	0.0097	-0.044	0.0583	-0.0705	0.0007	0.008	0.0142	0.0315	0.182	0.0491	-0.0229	-0.0328	0.238
CC1(C)CCC(CN2CCN(c3ccc(C(=O)NS(=O)(=O)c4ccc(NCC5CCOCC5)c([N+](=O)[O-])c4)c(Oc4cnc5[nH]ccc5c4)c3)CC2)=C(c2ccc(Cl)cc2)C1 [Venetoclax] + CN(C)CCCOc1ccc(-c2ccc3ncc4c(c3c2)n(C2CCOCC2)c(=O)n4C)cn1 [AZD0156] (first compound max 1 µM, 7x7, partner max 1 µM)	0.0189	-0.0508	-0.0365	0.0003	-0.0223	-0.0861	-0.0286	-0.0152	-0.0333	0.0226	-0.013	-0.0001	0.0204	0.291
CC1(C)CCC(CN2CCN(c3ccc(C(=O)NS(=O)(=O)c4ccc(NCC5CCOCC5)c([N+](=O)[O-])c4)c(Oc4cnc5[nH]ccc5c4)c3)CC2)=C(c2ccc(Cl)cc2)C1 [Venetoclax] + COc1cc(Nc2ncc3c(n2)-c2ccc(Cl)cc2C(c2c(F)cccc2OC)=NC3)ccc1C(=O)O [Alisertib] (first compound max 1 µM, 7x7, partner max 10 µM)	0.0345	-0.0548	-0.0457	0.0313	-0.0614	-0.0124	-0.0043	0.0079	-0.0225	0.0906	0.0971	-0.0996	0.1	0.665
CC1(C)CCC(CN2CCN(c3ccc(C(=O)NS(=O)(=O)c4ccc(NCC5CCOCC5)c([N+](=O)[O-])c4)c(Oc4cnc5[nH]ccc5c4)c3)CC2)=C(c2ccc(Cl)cc2)C1 [Venetoclax] + C[C@@H]1COCCN1C2=NC(=NC(=C2)C3(CC3)[S@](=N)(=O)C)C4=C5C=CNC5=NC=C4 [AZD6738] (first compound max 1 µM, 7x7, partner max 10 µM)	-0.0345	-0.0377	-0.054	-0.0189	-0.0444	-0.0301	-0.0703	0.0003	0.0105	0.015	-0.0299	-0.0835	0.0174	0.485
CC1(C)CCC(CN2CCN(c3ccc(C(=O)NS(=O)(=O)c4ccc(NCC5CCOCC5)c([N+](=O)[O-])c4)c(Oc4cnc5[nH]ccc5c4)c3)CC2)=C(c2ccc(Cl)cc2)C1 [Venetoclax] + C[C@@H](Nc1cc(F)cc(F)c1)c1cc(C(=O)N(C)C)cc2c(=O)cc(N3CCOCC3)oc12 [AZD8186] (first compound max 1 µM, 7x7, partner max 3 µM)	-0.0149	-0.0501	0.0566	0.0333	-0.0594	-0.0302	-0.0421	-0.0499	-0.0299	0.0654	-0.0141	-0.0518	0.0317	0.412
CC1(C)CCC(CN2CCN(c3ccc(C(=O)NS(=O)(=O)c4ccc(NCC5CCOCC5)c([N+](=O)[O-])c4)c(Oc4cnc5[nH]ccc5c4)c3)CC2)=C(c2ccc(Cl)cc2)C1 [Venetoclax] + Cc1cc2ncnn2cc1Nc1ncc2c(n1)n(C1CCOCC1)c(=O)n2C [AZD7648] (first compound max 1 µM, 7x7, partner max 10 µM)	-0.051	-0.0046	-0.0788	-0.0094	-0.036	-0.0541	0.0048	-0.0267	-0.0384	0.02	-0.0119	-0.0448	-0.0667	0.358
